Like-named read-outs stand apart in the source and are kept apart here.
Assays:
[1] = system: colon LOVO cell line; assay: MTT assay against colon LOVO cell line; format: cell-based, human
[2] = system: NSCLC A549 cell line; assay: MTT assay against human tumor NSCLC A549 cell line; format: cell-based

| Compound | IC50 ([1]; Homo sapiens) | IC50 ([2]; Homo sapiens) | IC50 [1] | IC50 [2] |
| --- | --- | --- | --- | --- |
| CNC(=O)c1cccc2cc(Oc3ccnc4cc(OCCCN5CC(OC)C6(CC6)C5)c(OC)cc34)ccc12 (stereo not drawn) [Example 29, 6-(6-Methoxy-7-(3-(7-methoxy-5-azaspiro[2.4]heptan-5-yl)propoxy)quinolin-4-yloxy)-N-methyl-1-naphthamide] | 900 nM | 300 nM | – | – |
| CNC(=O)c1c(C)oc2cc(Oc3ccnc4cc(OCCCN5CC(OC)C6(CC6)C5)c(OC)cc34)ccc12 (stereo not drawn) [Example 19, 6-(6-Methoxy-7-(3-(7-methoxy-5-azaspiro[2.4]heptan-5-yl)propoxy)quinolin-4-yloxy)-N,2-dimethyl-benzofuran-3-carboxamide] | 700 nM | 200 nM | – | – |
| COc1cc2c(Oc3ccc4[nH]c(C)cc4c3F)ccnc2cc1OCCCN1CC2(CC2)C2(C1)OCCO2 [Example 6, 4-(4-fluoro-2-methyl-1H-indol-5-yloxy)-6-methoxy-7-[3-(5,8-Dioxa-10-azadispiro[2.0.4.3]-undecane)propoxy]quinoline] | – | – | 400 nM | 80 nM |
| C=C1CN(CCCOc2cc3nccc(Oc4ccc5c(C(=O)NC)c(C)oc5c4)c3cc2OC)CC12CC2 [Example 20, 6-(6-Methoxy-7-(3-(7-methylene-5-azaspiro[2.4]heptan-5-yl)propoxy)quinolin-4-yloxy)-N,2-dimethylbenzofuran-3-carboxamide] | 900 nM | 300 nM | – | – |
| CNC(=O)c1cccc2cc(Oc3ccnc4cc(OCCN5CC(O)C6(CC6)C5)c(OC)cc34)ccc12 (stereo not drawn) [Example 23, 6-(7-(2-(7-Hydroxy-5-azaspiro[2.4]heptan-5-yl)ethoxy)-6-methoxyquinolin-4-yloxy)-N-methyl-1-naphthamide] | 1200 nM | 800 nM | – | – |
| COc1cc2c(Oc3ccc4[nH]c(C)cc4c3F)ccnc2cc1OCCCN1CC(O)C2(CC2)C1 (stereo not drawn) [Example 8, 5-(3-(4-(4-Fluoro-2-methyl-1H-indol-5-yloxy)-6-methoxyquinolin-7-yloxy)propyl)-5-azaspiro[2.4]-heptan-7-ol] | 300 nM | 100 nM | – | – |
| CNC(=O)c1cccc2cc(Oc3ccnc4cc(OCCN5CC(OC)C6(CC6)C5)c(OC)cc34)ccc12 (stereo not drawn) [Example 24, 6-(6-Methoxy-7-(2-(7-methoxy-5-azaspiro[2.4]heptan-5-yl)ethoxy)quinolin-4-yloxy)-N-methyl-1-naphthamide] | 1500 nM | 1000 nM | – | – |
| CNC(=O)c1c(C)oc2cc(Oc3ccnc4cc(OCCN5CC(O)C6(CC6)C5)c(OC)cc34)ccc12 (stereo not drawn) [Example 13, 6-(7-(2-(7-Hydroxy-5-azaspiro[2.4]heptan-5-yl)ethoxy)-6-methoxyquinolin-4-yloxy)-N,2-dimethylbenzofuran-3-carboxamide] | 900 nM | 200 nM | – | – |
| CNC(=O)c1c(C)oc2cc(Oc3ccnc4cc(OCCN5CC6(CC6)C6(C5)OCCO6)c(OC)cc34)ccc12 [Example 11, 6-(6-Methoxy-7-[2-(5,8-Dioxa-10-azadispiro[2.0.4.3]undecane)ethoxy]quinolin-4-yloxy)-N,2-dimethylbenzofuran-3-carboxamide] | – | – | 700 nM | 200 nM |
| COc1cc2c(Oc3ccc4[nH]c(C)cc4c3F)ccnc2cc1OCCN1CC(O)C2(CC2)C1 (stereo not drawn) [Example 3, 5-(2-(4-(4-fluoro-2-methyl-1H-indol-5-yloxy)-6-methoxyquinolin-7-yloxy)ethyl)-5-azaspiro[2.4]-heptan-7-ol] | 400 nM | 100 nM | – | – |
| CNC(=O)c1cccc2cc(Oc3ccnc4cc(OCCCN5CC(O)C6(CC6)C5)c(OC)cc34)ccc12 (stereo not drawn) [Example 28, 6-(7-(3-(7-Hydroxy-5-azaspiro[2.4]heptan-5-yl)propoxy)-6-methoxyquinolin-4-yloxy)-N-methyl-1-naphthamide] | 1500 nM | 1000 nM | – | – |
| C=C1CN(CCCOc2cc3nccc(Oc4ccc5[nH]c(C)cc5c4F)c3cc2OC)CC12CC2 [Example 10, 4-(4-Fluoro-2-methyl-1H-indol-5-yloxy)-6-methoxy-7-(3-(7-methylene-5-azaspiro[2.4]heptan-5-yl)propoxy)quinoline] | 400 nM | 100 nM | – | – |
| COc1cc2c(Oc3ccc4[nH]c(C)cc4c3F)ccnc2cc1OCCCN1CC(OC)C2(CC2)C1 (stereo not drawn) [Example 9, 4-(4-Fluoro-2-methyl-1H-indol-5-yloxy)-6-methoxy-7-(3-(7-methoxy-5-azaspiro[2.4]heptan-5-yl)propoxy)quinoline] | 400 nM | 100 nM | – | – |
| CNC(=O)c1cccc2cc(Oc3ccnc4cc(OCCCN5CC6(CC6)C6(C5)OCCO6)c(OC)cc34)ccc12 [Example 26, 6-(6-Methoxy-7-[3-(5,8-Dioxa-10-azadispiro[2.0.4.3]undecane)propoxy]quinolin-4-yloxy)-N-methyl-1-naphthamide] | – | – | 1100 nM | 800 nM |
| CNC(=O)c1c(C)oc2cc(Oc3ccnc4cc(OCCN5CC(OC)C6(CC6)C5)c(OC)cc34)ccc12 (stereo not drawn) [Example 14, 6-(6-Methoxy-7-(2-(7-methoxy-5-azaspiro[2.4]heptan-5-yl)ethoxy)quinolin-4-yloxy)-N,2-dimethylbenzofuran-3-carboxamide] | 700 nM | 200 nM | – | – |
| COc1cc2c(Oc3ccc4[nH]c(C)cc4c3F)ccnc2cc1OCCCN1CC(=O)C2(CC2)C1 [Example 7, 5-(3-(4-(4-Fluoro-2-methyl-1H-indol-5-yloxy)-6-methoxyquinolin-7-yloxy)propyl)-5-azaspiro[2.4]-heptan-7-one] | 200 nM | 90 nM | – | – |
| CNC(=O)c1cccc2cc(Oc3ccnc4cc(OCCN5CC(=O)C6(CC6)C5)c(OC)cc34)ccc12 [Example 22, 6-(6-Methoxy-7-(2-(7-oxo-5-azaspiro[2.4]heptan-5-yl)ethoxy)quinolin-4-yloxy)-N-methyl-1-naphthamide] | 1100 nM | 700 nM | – | – |
| COc1cc2c(Oc3ccc4[nH]c(C)cc4c3F)ccnc2cc1OCCN1CC(=O)C2(CC2)C1 [Example 2, 5-(2-(4-(4-Fluoro-2-methyl-1H-indol-5-yloxy)-6-methoxyquinolin-7-yloxy)ethyl)-5-azaspiro[2.4]-heptan-7-one] | 300 nM | 100 nM | – | – |
| CNC(=O)c1c(C)oc2cc(Oc3ccnc4cc(OCCCN5CC6(CC6)C6(C5)OCCO6)c(OC)cc34)ccc12 [Example 16, 6-(6-Methoxy-7-[3-(5,8-Dioxa-10-azadispiro[2.0.4.3]undecane)propoxy]quinolin-4-yloxy)-N,2-dimethylbenzofuran-3-carboxamide] | – | – | 700 nM | 200 nM |
| C=C1CN(CCCOc2cc3nccc(Oc4ccc5c(C(=O)NC)cccc5c4)c3cc2OC)CC12CC2 [Example 30, 6-(6-Methoxy-7-(3-(7-methylene-5-azaspiro[2.4]heptan-5-yl)propoxy)quinolin-4-yloxy)-N-methyl-1-naphthamide] | 1000 nM | 900 nM | – | – |
| CNC(=O)c1c(C)oc2cc(Oc3ccnc4cc(OCCN5CC(=O)C6(CC6)C5)c(OC)cc34)ccc12 [Example 12, 6-(6-Methoxy-7-(2-(7-oxo-5-azaspiro[2.4]heptan-5-yl)ethoxy)quinolin-4-yloxy)-N,2-dimethylbenzofuran-3-carboxamide] | 900 nM | 300 nM | – | – |
| CNC(=O)c1cccc2cc(Oc3ccnc4cc(OCCN5CC6(CC6)C6(C5)OCCO6)c(OC)cc34)ccc12 [Example 21, 6-(6-Methoxy-7-[2-(5,8-Dioxa-10-azadispiro[2.0.4.3]undecane)ethoxy]quinolin-4-yloxy)-N-methyl-1-naphthamide] | – | – | 1100 nM | 800 nM |
| COc1cc2c(Oc3ccc4[nH]c(C)cc4c3F)ccnc2cc1OCCN1CC(OC)C2(CC2)C1 (stereo not drawn) [Example 4, 4-(4-Fluoro-2-methyl-1H-indol-5-yloxy)-6-methoxy-7-(2-(7-methoxy-5-azaspiro[2.4]heptan-5-yl)ethoxy)quinoline] | 400 nM | 80 nM | – | – |
| C=C1CN(CCOc2cc3nccc(Oc4ccc5c(C(=O)NC)cccc5c4)c3cc2OC)CC12CC2 [Example 25, 6-(6-Methoxy-7-(2-(7-methylene-5-azaspiro[2.4]heptan-5-yl)ethoxy)quinolin-4-yloxy)-N-methyl-1-naphthamide] | 900 nM | 300 nM | – | – |
| C=C1CN(CCOc2cc3nccc(Oc4ccc5[nH]c(C)cc5c4F)c3cc2OC)CC12CC2 [Example 5, 4-(4-Fluoro-2-methyl-1H-indol-5-yloxy)-6-methoxy-7-(2-(7-methylene-5-azaspiro[2.4]heptan-5-yl)ethoxy)quinoline] | 400 nM | 100 nM | – | – |
| C=C1CN(CCOc2cc3nccc(Oc4ccc5c(C(=O)NC)c(C)oc5c4)c3cc2OC)CC12CC2 [Example 15, 6-(6-Methoxy-7-(2-(7-methylene-5-azaspiro[2.4]heptan-5-yl)ethoxy)quinolin-4-yloxy)-N,2-dimethyl-benzofuran-3-carboxamide] | 900 nM | 300 nM | – | – |
| COc1cc2c(Oc3ccc4[nH]c(C)cc4c3F)ccnc2cc1OCCN1CC2(CC2)C2(C1)OCCO2 [Example 1, 4-(4-Fluoro-2-methyl-1H-indol-5-yloxy)-6-methoxy-7-[2-(5,8-Dioxa-10-azadispiro[2.0.4.3]-undecane)ethoxy]quinoline] | – | – | 200 nM | 90 nM |
| CNC(=O)c1c(C)oc2cc(Oc3ccnc4cc(OCCCN5CC(O)C6(CC6)C5)c(OC)cc34)ccc12 (stereo not drawn) [Example 18, 6-(7-(3-(7-Hydroxy-5-azaspiro[2.4]heptan-5-yl)propoxy)-6-methoxyquinolin-4-yloxy)-N,2-dimethyl-benzofuran-3-carboxamide] | 800 nM | 500 nM | – | – |
| CNC(=O)c1cccc2cc(Oc3ccnc4cc(OCCCN5CC(=O)C6(CC6)C5)c(OC)cc34)ccc12 [Example 27, 6-(6-Methoxy-7-(3-(7-oxo-5-azaspiro[2.4]heptan-5-yl)propoxy)quinolin-4-yloxy)-N-methyl-1-naphthamide] | 900 nM | 400 nM | – | – |
| CNC(=O)c1c(C)oc2cc(Oc3ccnc4cc(OCCCN5CC(=O)C6(CC6)C5)c(OC)cc34)ccc12 [Example 17, 6-(6-Methoxy-7-(3-(7-oxo-5-azaspiro[2.4]heptan-5-yl)propoxy)quinolin-4-yloxy)-N,2-benzofuran-3-carboxamide] | – | – | 900 nM | 300 nM |

— patent US8211911B2, “Compounds as kinase inhibitors” (priority 2008, dated 2012)
